According to patent publication US20250319115A1, “Compositions and Methods for Modulating Cytokines” (Flagship Pioneering Innovations VII, LLC, priority 2022, published 2025):

The molecules below were run on Peripheral Blood Mononuclear Cells (assay: PBMC cytokine release by Cytometric BeadArray, Activation format (peptide applied to PBMCs alone)). Details: 24 hours, supernatant CBA.
Assay type: cell-based, human
Design: key: X = a hit with significant activation or inhibition of relevant cytokine release
Experimental: (§1) Peripheral Blood Mononuclear Cells were seeded+/−the T-cell activator […] and +/−peptides for 24-48 hours. Cytokines were measured from the supernatant after incubation by CBA Cytometer.
(§2) Thawing PBMCs: PBMCs were thawed by pre-warming TexMACS media (Miltenyi Biotech) in 20 ml aliquots-1-50 ml conical per donor. After the media was warmed to 37° C., cells were removed from liquid nitrogen and brought to the tissue culture hood. For each donor, 1 ml of media from the warmed aliquot was added to the frozen vial and mixed up and down. The media plus thawed cells were then added back to the 50 ml conical. This was repeated until all the cells were thawed and added to the 50 ml tube. Continue with other donors if used. Spin cells for 5 min at 400×g. Supernatant was aspirated and cells resuspended at ˜10*10^6 cells/ml (see vial for cell number).
(§3) PBMC Plating: Frozen PBMCs from normal, healthy, human volunteers (StemCell Technologies) were thawed and plated at 250,000 cells/well. After PBMCs were thawed and resuspended at […], cells were then counted (Countess III, Thermo Scientific) and adjusted based on counts to […]. Take the number of PBMCs determined by number of wells for the experiment, for example, 10 wells would need 2.5*10^6 cells total or 0.250 ml. The cells needed for the experiment are then transferred to another conical tube. Warmed TexMACS media is added so that the final concentration is 250,000 cells/190 ul media, for example, 10 wells would need 1.9 ml (190 ul×10 wells) of media total minus 0.250 ml of cells (1.9 ml-0.250 ml) or 1.65 ml of media added to the 0.250 ml of cells. Add 190 ul of cells plus media to the 96 well U-bottom plate. Place in incubator until dilutions are made and ready.
(§4) Peptide Dilutions: Ideally, all peptides should be at a starting concentration of at least 10 mM, especially for those in DMSO (ATCC) to reach a final concentration of 1 uM (H2O) or 0.5 uM (DMSO). Dilutions of all test articles should be made at 20× the final concentration, for example, a final concentration of 1 uM peptide would need to be made at 20 uM.
(§5) Reagent Dilution: Dilutions are made in TexMACS media, enough for 10 ul/well in triplicate (30 ul of a 20×). Activator—CD3/CD28 (TransAct; Miltenyi Biotech) or cytokine will be at 21× and added after the 45-minute incubation with peptides. Be sure to include relevant controls—Positive: TransAct+Cells, Negative: Vehicle+Cells. Dilutions should also be made in a ultra-low binding plate (Corning).
(§6) Assay Procedure: Peptide Treatment: Start assay by thawing the cells and plating in a 96 well, U-bottom tissue culture plate (Corning) as described above. Cell plates are placed in a tissue culture incubator (5% CO2, 37° C.). While cells are in the incubator, start making dilutions (optimally 1 hr or less) as described above. Cell plates are removed from the incubator and 10 ul of the 20× dilutions are added to the relevant wells. After the addition of inhibitors, cell plates are placed in the tissue culture incubator for 45 minutes. The plates are removed from the incubator and 10 ul of 21× TransAct is added to the relevant wells*. Plates are then returned to the incubator and incubated for 24 hours. After 24 hours, plates are spun for 5 minutes at 400×g.
(§7) * Activation: This assay can be run in two different formats—Activation and Inhibition. The procedure is the same except no TransAct is needed in the peptide wells for Activation. TransAct is only needed in the control wells. The purpose of this procedure is to determine the possible response from peptides alone.
(§8) Cytometric BeadArray (CBA): After the spin, supernatants (˜150 ul) are transferred to a new, ultra-low binding U-bottom plate. Supernatants are then frozen at −20° C. until thawed for CBA (BD) to determine levels of human IL-2, TNFα, IL-1b, IP-10, IL-10, and IFNg. CBA was run according to the manufacturers protocol.

Row | Molecule | Activation by Analyte: IP-10 | Activation by Analyte: IL-10 | Activation by Analyte: IL-2 | Activation by Analyte: IL-1b
1 | SEQ ID NO: 5730: target protein of the Sequence Listing, secreted peptide (MVSHRKDWRRVNLRFSSCLLLSICLDDKPSADELCFWTDHGRSQLTCPSLGVSQGHARSS; listed as Homo sapiens) | X |  |  | 
2 | SEQ ID NO: 4615: target protein of the Sequence Listing, secreted peptide (MTAFGLGIPTFLVMQPSGSQPRFPALTQNGVALVRTPLTSVYLRVRICRVLGPRSQPS; listed as Homo sapiens) | X | X |  | 
3 | SEQ ID NO: 5848: target protein of the Sequence Listing, secreted peptide (MARPLSLAAAGAPDLLFTALCSLLIEAQPLRPFDLQVLGDPQPRARTP; listed as Homo sapiens) |  |  | X | 
4 | SEQ ID NO: 3462: target protein of the Sequence Listing, secreted peptide (METSCSLWVSSELFCRSVKVFFCLLALHLSALPHSSWTQDKNLGLAGMVELK; listed as Homo sapiens) | X |  |  | 
5 | SEQ ID NO: 6295: target protein of the Sequence Listing, secreted peptide (MWWKTPCWWTPSTTATSSSAEARSCGRLLKSMAG; listed as Homo sapiens) | X |  |  | 
6 | SEQ ID NO: 3169: target protein of the Sequence Listing, secreted peptide (peptide, listed as Homo sapiens) MCHKGWHGPGVPHHVAFTPCKARLRPATQCQAHSSPRRKMVQAGSIPLAAASGRLCLTHAGWWRGAS | X |  |  | 
7 | SEQ ID NO: 5931: target protein of the Sequence Listing, secreted peptide (peptide, listed as Homo sapiens) MSCGSRRGPSLASSLAWLQLQSGTRPFCSSSPPYFLSHGRRIPFSHPRKESALRATKEPRTHRTNTSLADLPSPAPAHL |  |  |  | X
8 | SEQ ID NO: 3494: target protein of the Sequence Listing, secreted peptide (peptide, listed as Homo sapiens) MSYLPTNPPGSILTCWLGVSLGSHRSARGGSTIYGRLLPRRKDVWFSQAKDVPKYRGLLYLQS | X |  |  | 
9 | SEQ ID NO: 5631: target protein of the Sequence Listing, secreted peptide (peptide, listed as Homo sapiens) MMAQKSKFRVLFMSDPHGTAMPLTSAILESSRASLAAKQEDKCFTDIRNLKWKHFLEHTKQPP | X |  |  | 
10 | SEQ ID NO: 6517: target protein of the Sequence Listing, secreted peptide (peptide, listed as Homo sapiens) VALSLLTSQGRQRRAGPSTAFAALPATVATFSAMTESESLRTSRHADTALARVRRGAKFRGQARTRYCARARSHRFTPPSGA | X |  |  | 
11 | SEQ ID NO: 5537: target protein of the Sequence Listing, secreted peptide (peptide, listed as Homo sapiens) MQRLPAAFFRSFAAQGLGESVHINTPTSLSLRGRPFISSSGPGARARVTCAPCLHAARILCCFWRGLHR | X |  |  | 
12 | SEQ ID NO: 4566: target protein of the Sequence Listing, secreted peptide (peptide, listed as Homo sapiens) LRPRSAAFAPRYTRLVMRRSSRSFRLQCTGFPSSSAQSISAHLSNSMPSSLLTISRCPGMFAVRCPL | X |  |  | 

What follows are molecules tested on CD3/CD28 (TransAct) activated PBMCs (assay: PBMC cytokine release by Cytometric BeadArray, Inhibition format (peptide with anti-CD3/CD28 T-cell activator)). Details: CD3/CD28 (TransAct) activated PBMCs, FIG. 7.
Assay type: cell-based, human
Design: key to Inhibition by Analyte: IL-1b / Inhibition by Analyte: IL-2 / Inhibition by Analyte: TNF / Inhibition by Analyte: IP-10 / Inhibition by Analyte: IL-10: X = a hit with significant activation or inhibition of relevant cytokine release
Experimental: as §1, §2, §3, §4, §5, §6, §7, §8

Row | Molecule | release of TNF-alpha from activated PBMCs
13 | SEQ ID NO: 3585: target protein, anti-inflammatory cytokine modulator, secreted peptide (VAEPRRGHLKAALASLGGAAPAAATNGSPPLFK; listed as Homo sapiens) | significantly blocks

Same assay, conditions: CD3/CD28 (TransAct) activated PBMCs, FIG. 8

Row | Molecule | release of IL-1b from activated PBMCs
14 | SEQ ID NO: 3585: target protein, anti-inflammatory cytokine modulator, secreted peptide (VAEPRRGHLKAALASLGGAAPAAATNGSPPLFK; listed as Homo sapiens) | does not block

Same assay, conditions: peptide applied with anti-CD3/CD28 T-cell activator, 24 hours, supernatant CBA

Row | Molecule | Inhibition by Analyte: IL-1b | Inhibition by Analyte: IL-2 | Inhibition by Analyte: TNF | Inhibition by Analyte: IP-10 | Inhibition by Analyte: IL-10
15 | SEQ ID NO: 3585: target protein, anti-inflammatory cytokine modulator, secreted peptide (VAEPRRGHLKAALASLGGAAPAAATNGSPPLFK; listed as Homo sapiens) | X | X | X |  | 
16 | SEQ ID NO: 4615: target protein of the Sequence Listing, secreted peptide (MTAFGLGIPTFLVMQPSGSQPRFPALTQNGVALVRTPLTSVYLRVRICRVLGPRSQPS; listed as Homo sapiens) | X |  | X |  | 
17 | SEQ ID NO: 1184: target protein of the Sequence Listing, synthesized peptide (LEMEGGCSPPIPHAGHRWKCQTVRVHA; listed as Homo sapiens) | X | X | X | X | 
18 | SEQ ID NO: 4174: target protein of the Sequence Listing, secreted peptide (MRSPLSASALLLWSSSVARAFSSPSLLMAVPSPTCSRY; listed as Homo sapiens) | X |  | X | X | X
19 | SEQ ID NO: 5862: target protein of the Sequence Listing, secreted peptide (MESRTLLLLFSGAVALIQTWADYNYNQGRNDLIFTLQLWKRQ; listed as Homo sapiens) | X |  |  |  | 
20 | SEQ ID NO: 5627: target protein of the Sequence Listing, secreted peptide (MSEVATLLFSQTALASLESVHPAGHKLWMRNLRQVTSP; listed as Homo sapiens) |  | X | X |  | 
21 | SEQ ID NO: 6518: target protein of the Sequence Listing, secreted peptide (MSFDHPEKNGPWPADPINLPSHG; listed as Homo sapiens) |  | X | X |  | 
22 | SEQ ID NO: 5843: target protein of the Sequence Listing, secreted peptide (MGGKSWLFFYSLVFCALLPLPRREDPFKLF; listed as Homo sapiens) | X |  |  |  | 
